Test results: ChEMBL document CHEMBL3351230, “Synthesis of 2-anilinopyridine dimers as microtubule targeting and apoptosis inducing agents” (Bioorg Med Chem, 2014)

Legend:
[1] = tested on: A549; assay: Antiproliferative activity against human A549 cells assessed as growth inhibition after 48 hrs by SRB assay; conditions: A549, 48 h
[2] = tested on: MCF7; assay: Antiproliferative activity against human MCF7 cells assessed as growth inhibition after 48 hrs by SRB assay; conditions: MCF7, 48 h
[3] = tested on: DU-145; assay: Antiproliferative activity against human DU145 cells assessed as growth inhibition after 48 hrs by SRB assay; conditions: DU-145, 48 h

SMILES | GI50 [1] | GI50 [2] | GI50 [3]
COc1ccc(Nc2ncccc2C(=O)Nc2cccnc2Nc2ccc(Cl)cc2)cc1 | > 100 µM | 28.8 µM | 16.6 µM
COc1ccc(Nc2ncccc2NC(=O)c2cccnc2Nc2cc(C(F)(F)F)cc(C(F)(F)F)c2)cc1 | > 100 µM | > 100 µM | 9.8 µM
COc1ccc(Nc2ncccc2NC(=O)c2cccnc2Nc2ccc(OC)cc2)cc1 | > 100 µM | > 100 µM | 21.2 µM
O=C(Nc1cccnc1Nc1ccc(F)cc1)c1cccnc1Nc1ccc(F)cc1 | 15.2 µM | 16 µM | 8.4 µM

The next lines start with the values.

GI50 [1] | GI50 [2] | GI50 [3] | SMILES
> 100 µM | > 100 µM | 10.5 µM | COc1cc(Nc2ncccc2C(=O)Nc2cccnc2Nc2ccc(Cl)cc2)cc(OC)c1OC
3.9 µM | 10.5 µM | 3.1 µM | O=C(Nc1cccnc1Nc1ccc(Cl)cc1)c1cccnc1Nc1cc(C(F)(F)F)cc(C(F)(F)F)c1
3.2 µM | 5.4 µM | 4.8 µM | O=C(Nc1cccnc1Nc1ccccc1)c1cccnc1Nc1cc(C(F)(F)F)cc(C(F)(F)F)c1
6 µM | > 100 µM | > 100 µM | COc1cc(Nc2ncccc2C(=O)Nc2cccnc2Nc2ccccc2)cc(OC)c1OC
> 100 µM | > 100 µM | 7 µM | COc1cc(Nc2ncccc2C(=O)Nc2cccnc2Nc2ccc(F)cc2)cc(OC)c1OC
